49 compounds from ChEMBL document CHEMBL4184286, “Discovery of morpholine-based aryl sulfonamides as Nav1.7 inhibitors” (Bioorg Med Chem Lett, 2018) can be followed below.

A value given as a limit tells only on which side of the number the result lay.

The target in test [1] is Sodium channel protein type 9 subunit alpha (Homo sapiens, UniProt Q15858). In words: Antagonist activity at recombinant human Nav1.7 expressed in HEK293 cells assessed as reduction in channel current at -60 mV holding potential after 600 secs by barracuda automated electrophysiology method. It is filed as cell-based.
Sequence of Sodium channel protein type 9 subunit alpha (Q15858 whole entry): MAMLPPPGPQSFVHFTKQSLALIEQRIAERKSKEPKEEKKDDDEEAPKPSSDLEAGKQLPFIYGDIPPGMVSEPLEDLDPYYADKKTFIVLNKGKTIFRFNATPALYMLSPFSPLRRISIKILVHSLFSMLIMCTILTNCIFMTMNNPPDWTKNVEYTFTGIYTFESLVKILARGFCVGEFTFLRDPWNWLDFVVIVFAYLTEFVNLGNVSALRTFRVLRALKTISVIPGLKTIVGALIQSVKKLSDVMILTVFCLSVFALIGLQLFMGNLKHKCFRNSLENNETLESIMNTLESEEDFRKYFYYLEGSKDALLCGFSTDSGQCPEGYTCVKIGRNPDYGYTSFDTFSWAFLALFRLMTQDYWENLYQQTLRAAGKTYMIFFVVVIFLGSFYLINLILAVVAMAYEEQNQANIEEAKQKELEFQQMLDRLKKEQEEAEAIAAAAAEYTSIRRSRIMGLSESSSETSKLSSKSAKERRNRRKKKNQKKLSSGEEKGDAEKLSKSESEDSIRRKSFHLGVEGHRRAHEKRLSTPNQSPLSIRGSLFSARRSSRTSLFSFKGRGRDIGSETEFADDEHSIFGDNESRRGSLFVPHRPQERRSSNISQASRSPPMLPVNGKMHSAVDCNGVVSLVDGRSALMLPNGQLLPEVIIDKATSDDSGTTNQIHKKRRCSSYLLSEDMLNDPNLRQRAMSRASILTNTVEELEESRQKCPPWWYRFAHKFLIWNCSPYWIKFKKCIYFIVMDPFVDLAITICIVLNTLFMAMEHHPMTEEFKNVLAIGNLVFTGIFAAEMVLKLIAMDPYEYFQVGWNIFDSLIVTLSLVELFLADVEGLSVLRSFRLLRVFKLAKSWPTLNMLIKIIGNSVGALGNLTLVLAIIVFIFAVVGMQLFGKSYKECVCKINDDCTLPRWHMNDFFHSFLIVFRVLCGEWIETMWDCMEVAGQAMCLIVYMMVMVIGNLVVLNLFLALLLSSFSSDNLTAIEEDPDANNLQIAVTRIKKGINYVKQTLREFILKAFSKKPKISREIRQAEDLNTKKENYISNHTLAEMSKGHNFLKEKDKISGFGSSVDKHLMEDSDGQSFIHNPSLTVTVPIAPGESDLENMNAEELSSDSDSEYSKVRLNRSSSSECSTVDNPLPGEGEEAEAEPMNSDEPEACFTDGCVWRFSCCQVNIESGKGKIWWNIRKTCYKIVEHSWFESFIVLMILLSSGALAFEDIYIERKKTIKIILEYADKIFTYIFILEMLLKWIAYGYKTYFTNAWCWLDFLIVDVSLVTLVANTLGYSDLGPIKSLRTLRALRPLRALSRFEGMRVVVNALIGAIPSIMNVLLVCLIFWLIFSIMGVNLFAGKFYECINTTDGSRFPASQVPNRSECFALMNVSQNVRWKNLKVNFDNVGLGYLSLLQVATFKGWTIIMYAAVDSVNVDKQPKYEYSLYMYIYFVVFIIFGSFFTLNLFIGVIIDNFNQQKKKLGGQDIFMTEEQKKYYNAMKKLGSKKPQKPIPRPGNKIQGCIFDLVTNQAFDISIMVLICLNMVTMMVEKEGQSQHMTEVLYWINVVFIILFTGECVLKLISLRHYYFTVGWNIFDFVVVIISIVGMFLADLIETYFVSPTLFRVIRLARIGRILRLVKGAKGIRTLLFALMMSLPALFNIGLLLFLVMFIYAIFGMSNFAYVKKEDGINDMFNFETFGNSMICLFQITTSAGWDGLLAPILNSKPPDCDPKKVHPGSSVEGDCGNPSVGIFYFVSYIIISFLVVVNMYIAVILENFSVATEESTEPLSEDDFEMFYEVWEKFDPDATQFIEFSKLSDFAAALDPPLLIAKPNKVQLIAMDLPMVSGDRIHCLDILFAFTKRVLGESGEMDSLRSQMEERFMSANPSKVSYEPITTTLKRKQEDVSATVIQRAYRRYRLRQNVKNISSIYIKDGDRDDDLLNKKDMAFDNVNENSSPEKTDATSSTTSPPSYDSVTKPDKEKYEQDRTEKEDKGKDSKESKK
In test [2] the target is Sodium channel protein type 5 subunit alpha (Homo sapiens, UniProt Q14524). In words: Antagonist activity at recombinant human Nav1.5 expressed in HEK293 cells assessed as reduction in channel current at -50 mV holding potential after 600 secs by barracuda automated electrophysiology method. It is filed as ADME, cell-based.
Sequence of Sodium channel protein type 5 subunit alpha (Q14524 whole entry): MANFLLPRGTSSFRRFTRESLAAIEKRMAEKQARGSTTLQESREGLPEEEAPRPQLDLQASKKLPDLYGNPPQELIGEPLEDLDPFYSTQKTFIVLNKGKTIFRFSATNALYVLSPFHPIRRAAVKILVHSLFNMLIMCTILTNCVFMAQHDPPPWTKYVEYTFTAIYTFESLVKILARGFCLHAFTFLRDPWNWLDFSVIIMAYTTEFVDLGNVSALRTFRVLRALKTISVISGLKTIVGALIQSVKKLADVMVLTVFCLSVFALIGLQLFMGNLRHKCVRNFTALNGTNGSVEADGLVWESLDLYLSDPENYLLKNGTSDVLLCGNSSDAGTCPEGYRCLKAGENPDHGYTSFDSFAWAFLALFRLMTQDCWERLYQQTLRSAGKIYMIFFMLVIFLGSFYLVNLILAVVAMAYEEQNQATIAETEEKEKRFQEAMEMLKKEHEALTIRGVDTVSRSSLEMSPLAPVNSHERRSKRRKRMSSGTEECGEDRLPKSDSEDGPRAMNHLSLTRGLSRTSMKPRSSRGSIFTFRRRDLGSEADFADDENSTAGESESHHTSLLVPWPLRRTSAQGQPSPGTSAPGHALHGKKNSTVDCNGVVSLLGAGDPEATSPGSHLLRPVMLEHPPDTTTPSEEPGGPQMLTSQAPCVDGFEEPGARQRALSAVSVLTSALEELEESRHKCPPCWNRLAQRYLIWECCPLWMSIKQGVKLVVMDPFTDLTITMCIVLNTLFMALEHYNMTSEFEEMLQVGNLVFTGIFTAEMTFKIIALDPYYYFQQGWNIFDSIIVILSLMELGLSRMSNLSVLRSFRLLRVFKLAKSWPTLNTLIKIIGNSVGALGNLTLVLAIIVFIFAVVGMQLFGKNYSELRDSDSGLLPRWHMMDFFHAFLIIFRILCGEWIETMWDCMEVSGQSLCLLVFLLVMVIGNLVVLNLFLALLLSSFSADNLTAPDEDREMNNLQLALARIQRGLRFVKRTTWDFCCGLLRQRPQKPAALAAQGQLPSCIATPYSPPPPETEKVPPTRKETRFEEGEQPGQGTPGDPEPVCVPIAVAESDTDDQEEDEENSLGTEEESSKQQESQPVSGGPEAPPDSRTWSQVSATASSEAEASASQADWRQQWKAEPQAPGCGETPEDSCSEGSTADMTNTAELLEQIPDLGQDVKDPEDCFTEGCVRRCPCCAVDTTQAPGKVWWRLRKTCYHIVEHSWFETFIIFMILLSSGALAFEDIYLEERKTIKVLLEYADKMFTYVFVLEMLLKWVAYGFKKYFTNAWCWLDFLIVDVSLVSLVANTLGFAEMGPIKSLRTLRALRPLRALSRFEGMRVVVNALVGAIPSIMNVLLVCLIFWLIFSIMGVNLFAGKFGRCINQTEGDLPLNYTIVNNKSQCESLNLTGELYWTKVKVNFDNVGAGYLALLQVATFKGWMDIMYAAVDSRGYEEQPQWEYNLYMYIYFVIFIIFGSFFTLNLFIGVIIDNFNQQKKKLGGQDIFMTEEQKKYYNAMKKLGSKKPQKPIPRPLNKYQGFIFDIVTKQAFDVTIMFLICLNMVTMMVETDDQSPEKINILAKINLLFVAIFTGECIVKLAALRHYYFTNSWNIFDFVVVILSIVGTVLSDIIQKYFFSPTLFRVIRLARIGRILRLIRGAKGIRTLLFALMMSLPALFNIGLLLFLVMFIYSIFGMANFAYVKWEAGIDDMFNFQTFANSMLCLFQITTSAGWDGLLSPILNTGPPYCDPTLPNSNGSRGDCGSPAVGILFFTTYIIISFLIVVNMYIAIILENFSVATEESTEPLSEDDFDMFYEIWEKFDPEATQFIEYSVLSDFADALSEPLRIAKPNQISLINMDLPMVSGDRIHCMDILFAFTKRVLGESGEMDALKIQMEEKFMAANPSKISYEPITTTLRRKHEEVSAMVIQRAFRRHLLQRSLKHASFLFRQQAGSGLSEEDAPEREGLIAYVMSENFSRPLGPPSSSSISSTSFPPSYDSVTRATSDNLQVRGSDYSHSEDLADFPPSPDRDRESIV

One may read the IC50 as the concentration needed to halve the response being measured. For `O=S(=O)(Nc1ncns1)c1cc(F)c(OC[C@H]2NCCO[C@@H]2c2ccc(Cl)cc2)cc1F`, in test [1], the IC50 turned out to be 1500 nM.
Still for that read-out and setting: under `O=S(=O)(Nc1ncns1)c1cc(F)c(CO[C@H]2OCCN[C@@H]2c2ccc(F)cc2)cc1F` stands 2500 nM.
As to `CC1(C)CN[C@@H](c2cc(Cl)cc(Cl)c2)[C@H](Oc2cc(F)c(S(=O)(=O)Nc3ncns3)cc2F)O1`, the IC50 in test [2] was determined as 4400 nM; in test [1], 3300 nM.
On to `O=S(=O)(Nc1ncns1)c1cc(F)c(OC[C@H]2OCCN[C@@H]2c2ccc(Cl)cc2)cc1F`, for which the IC50 in test [1] turned out to be 29000 nM.
Regarding `O=S(=O)(Nc1ncns1)c1cc(F)c(OC2OCCNC2c2cc(Cl)cc(Cl)c2)cc1F` (single isomer, unassigned; isomer A), the IC50 in test [2] (hek293) is 5600 nM; in test [1], 840 nM.
In the case of `N#Cc1cccc(C2NCCOC2Oc2cc(F)c(S(=O)(=O)Nc3ncns3)cc2F)c1` (single isomer, unassigned; isomer A), the IC50 in test [2] was > 30000 nM; in test [1], 920 nM.
`COc1ccccc1C1NCCOC1Oc1cc(F)c(S(=O)(=O)Nc2ncns2)cc1F` (single isomer, unassigned; isomer A): the results for the 50% inhibitory concentration (IC50) in test [2] and in test [1] were > 30000 nM and 200 nM, respectively.
For the compound `N#Cc1ccc(C2NCCOC2Oc2cc(F)c(S(=O)(=O)Nc3ncns3)cc2F)cc1` (single isomer, unassigned; isomer A), the results for the IC50 in test [2] and in test [1] were > 30000 nM and 1500 nM, respectively.
Turning to `CN(C)c1noc2ccc(C3NCCOC3Oc3cc(F)c(S(=O)(=O)Nc4ncns4)cc3F)cc12` (single isomer, unassigned; isomer A), the IC50 in test [1] is 70 nM.
In the case of `O=S(=O)(Nc1ncns1)c1cc(F)c(OC2OCCNC2c2ccc(C(F)(F)F)cc2)cc1F` (single isomer, unassigned; isomer A), the concentration for half-maximal inhibition (IC50) is > 30000 nM in test [2] and 390 nM in test [1].
With `CC(C)C[C@@H]1COC(Oc2cc(F)c(S(=O)(=O)Nc3ncns3)cc2F)C(c2cc(Cl)cc(Cl)c2)N1` (single isomer, unassigned; isomer A), the half-inhibitory concentration (IC50) in test [1] worked out at 1700 nM.
In the case of `O=S(=O)(Nc1ncns1)c1cc(F)c(OC2OCCNC2c2cccc3nccnc23)cc1F` (single isomer, unassigned; isomer A), the values for the IC50 in test [2] (hek293) and in test [1] were > 30000 nM and 6600 nM, respectively.
As to `O=S(=O)(Nc1ncns1)c1cc(F)c(OC2OCCNC2c2ccc(Cl)c(Cl)c2)cc1F` (single isomer, unassigned; isomer A), the concentration for half-maximal inhibition (IC50) in test [2] worked out at 1000 nM; in test [1] it was 1200 nM.
`CC(C)[C@H]1COC(Oc2cc(F)c(S(=O)(=O)Nc3ncns3)cc2F)C(c2cc(Cl)cc(Cl)c2)N1` (single isomer, unassigned; isomer A): the IC50 in test [1] was 430 nM.
Still for that read-out and setting: under `CC1(C)COC(Oc2cc(F)c(S(=O)(=O)Nc3ncns3)cc2F)C(c2ccc(Cl)cc2)N1` (single isomer, unassigned; isomer A) stands 350 nM.
Regarding `O=S(=O)(Nc1ncns1)c1cc(F)c(OC2OCCNC2c2ccc3cnccc3c2)cc1F` (single isomer, unassigned; isomer A), the IC50 in test [2] (hek293) was > 30000 nM; in test [1] it was 1400 nM.
The corresponding values for `Cn1nccc1C1NCCOC1Oc1cc(F)c(S(=O)(=O)Nc2ncns2)cc1F` (single isomer, unassigned; isomer A) are > 30000 nM and 5800 nM.
As to `O=S(=O)(Nc1ncns1)c1cc(F)c(OC2OCCNC2c2ccc(Cl)nc2)cc1F` (single isomer, unassigned; isomer A), the IC50 was > 30000 nM in test [2] (hek293) and 17000 nM in test [1].
Consider `O=S(=O)(Nc1ncns1)c1cc(F)c(OC2OCCNC2c2cccc(C(F)(F)F)c2)cc1F` (single isomer, unassigned; isomer A), for which the IC50 was 580 nM in test [2] and 310 nM in test [1].
Consider `CC1(C)CNC(c2cc(Cl)cc(Cl)c2)C(Oc2cc(F)c(S(=O)(=O)Nc3ncns3)cc2F)O1` (single isomer, unassigned; isomer A), for which the IC50 in test [1] was 140 nM.
In the case of `O=S(=O)(Nc1ncns1)c1cc(F)c(OC2OCCNC2c2ccc(F)cc2)cc1F` (single isomer, unassigned; isomer A), the IC50 in test [2] is > 30000 nM; in test [1], 690 nM.
Consider `O=S(=O)(Nc1ncns1)c1cc(F)c(OC2OCCNC2c2ccc3ncccc3c2)cc1F` (single isomer, unassigned; isomer A), for which the IC50 in test [2] (hek293) is > 30000 nM; in test [1], 2800 nM.
For the compound `O=S(=O)(Nc1ncns1)c1cc(F)c(OC2OCCNC2c2ccc(Cl)cc2Cl)cc1F` (single isomer, unassigned; isomer A), the IC50 is 1700 nM in test [2] and 260 nM in test [1].
Take `O=S(=O)(Nc1ncns1)c1cc(F)c(OC2OCCNC2c2ccc3c(c2)OCO3)cc1F` (single isomer, unassigned; isomer A): the IC50 was > 30000 nM in test [2] (hek293) and 1500 nM in test [1].
Regarding `COc1ccc(C2NCCOC2Oc2cc(F)c(S(=O)(=O)Nc3ncns3)cc2F)cc1` (single isomer, unassigned; isomer A), the IC50 in test [2] was > 30000 nM; in test [1], 810 nM.
On to `CC(C)C[C@H]1COC(Oc2cc(F)c(S(=O)(=O)Nc3ncns3)cc2F)C(c2cc(Cl)cc(Cl)c2)N1` (single isomer, unassigned; isomer A), for which the half-inhibitory concentration (IC50) in test [1] worked out at 1100 nM.
For `COc1cccc(C2NCCOC2Oc2cc(F)c(S(=O)(=O)Nc3ncns3)cc2F)c1` (single isomer, unassigned; isomer A), the concentration for half-maximal inhibition (IC50) was > 30000 nM in test [2] and 390 nM in test [1].
As to `O=S(=O)(Nc1ncns1)c1cc(F)c(OC2OCCNC2c2cc(Cl)cc(Cl)c2)cc1F` (single isomer, unassigned; isomer B), the IC50 in test [2] was found to be 5600 nM; in test [1], 28 nM.
In the case of `N#Cc1cccc(C2NCCOC2Oc2cc(F)c(S(=O)(=O)Nc3ncns3)cc2F)c1` (single isomer, unassigned; isomer B), the IC50 in test [2] (hek293) was > 30000 nM; in test [1], 11000 nM.
The corresponding values for `COc1ccccc1C1NCCOC1Oc1cc(F)c(S(=O)(=O)Nc2ncns2)cc1F` (single isomer, unassigned; isomer B) are > 30000 nM and 4600 nM.
The corresponding values for `N#Cc1ccc(C2NCCOC2Oc2cc(F)c(S(=O)(=O)Nc3ncns3)cc2F)cc1` (single isomer, unassigned; isomer B) are > 30000 nM and 4000 nM.
In the case of `CN(C)c1noc2ccc(C3NCCOC3Oc3cc(F)c(S(=O)(=O)Nc4ncns4)cc3F)cc12` (single isomer, unassigned; isomer B), the IC50 was 5000 nM in test [2] and 140 nM in test [1].
Regarding `O=S(=O)(Nc1ncns1)c1cc(F)c(OC2OCCNC2c2ccc(C(F)(F)F)cc2)cc1F` (single isomer, unassigned; isomer B), the IC50 in test [2] (hek293) was > 30000 nM; in test [1], 9700 nM.
For `CC(C)C[C@@H]1COC(Oc2cc(F)c(S(=O)(=O)Nc3ncns3)cc2F)C(c2cc(Cl)cc(Cl)c2)N1` (single isomer, unassigned; isomer B), the IC50 in test [1] was > 30000 nM.
`O=S(=O)(Nc1ncns1)c1cc(F)c(OC2OCCNC2c2cccc3nccnc23)cc1F` (single isomer, unassigned; isomer B): the IC50 is > 30000 nM in test [2] and 6300 nM in test [1].
`O=S(=O)(Nc1ncns1)c1cc(F)c(OC2OCCNC2c2ccc(Cl)c(Cl)c2)cc1F` (single isomer, unassigned; isomer B): the results for the IC50 in test [2] and in test [1] were 3000 nM and 170 nM, respectively.
Turning to `CC(C)[C@H]1COC(Oc2cc(F)c(S(=O)(=O)Nc3ncns3)cc2F)C(c2cc(Cl)cc(Cl)c2)N1` (single isomer, unassigned; isomer B), the IC50 in test [1] came to 1100 nM.
As for `CC1(C)COC(Oc2cc(F)c(S(=O)(=O)Nc3ncns3)cc2F)C(c2ccc(Cl)cc2)N1` (single isomer, unassigned; isomer B), the 50% inhibitory concentration (IC50) in test [1] came to 580 nM.
Same read-out and setting: under `CC(C)[C@@H]1COC(Oc2cc(F)c(S(=O)(=O)Nc3ncns3)cc2F)C(c2cc(Cl)cc(Cl)c2)N1` (single isomer, unassigned; isomer B) stands 25000 nM.
In the case of `O=S(=O)(Nc1ncns1)c1cc(F)c(OC2OCCNC2c2ccc3cnccc3c2)cc1F` (single isomer, unassigned; isomer B), the IC50 in test [2] was > 30000 nM; in test [1] it was 510 nM.
Turning to `O=S(=O)(Nc1ncns1)c1cc(F)c(OC2OCCNC2c2ccc(Cl)nc2)cc1F` (single isomer, unassigned; isomer B), the IC50 was > 30000 nM in test [2] and 15000 nM in test [1].
On to `CC1(C)CNC(c2cc(Cl)cc(Cl)c2)C(Oc2cc(F)c(S(=O)(=O)Nc3ncns3)cc2F)O1` (single isomer, unassigned; isomer B), for which, in test [1], the IC50 was found to be 450 nM.
Regarding `O=S(=O)(Nc1ncns1)c1cc(F)c(OC2OCCNC2c2ccc3ncccc3c2)cc1F` (single isomer, unassigned; isomer B), the values for the IC50 in test [2] and in test [1] were > 30000 nM and 1600 nM, respectively.
Take `O=S(=O)(Nc1ncns1)c1cc(F)c(OC2OCCNC2c2ccc3c(c2)OCO3)cc1F` (single isomer, unassigned; isomer B): the IC50 in test [2] was > 30000 nM; in test [1] it was 1100 nM.
Consider `COc1ccc(C2NCCOC2Oc2cc(F)c(S(=O)(=O)Nc3ncns3)cc2F)cc1` (single isomer, unassigned; isomer B), for which the IC50 in test [2] (hek293) is > 30000 nM; in test [1] it was 1800 nM.
The corresponding values for `COc1cccc(C2NCCOC2Oc2cc(F)c(S(=O)(=O)Nc3ncns3)cc2F)c1` (single isomer, unassigned; isomer B) are > 30000 nM and 1600 nM.
`Cn1nc(C(F)(F)F)cc1C1NCCOC1Oc1cc(F)c(S(=O)(=O)Nc2ncns2)cc1F` (single isomer, unassigned; isomer B): the half-maximal inhibitory concentration (IC50) in test [2] was > 30000 nM; in test [1] it was 4500 nM.
Regarding `CC(C)C[C@H]1COC(Oc2cc(F)c(S(=O)(=O)Nc3ncns3)cc2F)C(c2cc(Cl)cc(Cl)c2)N1` (stereo in doubt; 61), the half-maximal inhibitory concentration (IC50) in test [1] was determined as 6500 nM.
Still for that read-out and setting: as for `CC(C)[C@@H]1COC(Oc2cc(F)c(S(=O)(=O)Nc3ncns3)cc2F)C(c2cc(Cl)cc(Cl)c2)N1` (stereo in doubt; 66), the figure is 14000 nM.
